Assays:
[1] = molecular target: T1, PSMA (Homo sapiens, UniProt Q04609); experiment: Direct binding affinity on LNCaP cells (saturation); details: [99mTc]TcO complex of the listed compound, saturation 0.3-40 nM, 1 h 37° C., mean ± SEM, read-out: Kd [nM] of [99mTc]TcO-complexes
T1 construct: host or cells: LNCaP human prostate carcinoma cells
Description: (§1) Competition, saturation and internalization assays were assessed using the high PSMA expressing human prostate carcinoma cell line LNCaP (ATCC® CRL-1740). The cells were grown as monolayer at 37° C. in a humidified atmosphere comprising 5% CO2 and 95% air in RPMI medium including 10% FCS (Merck KGAA, Germany). After washing the confluent cells twice with phosphate buffered saline (PBS) and detaching them with trypsin/EDTA (0.05%/0.02%), the cells were suspended in medium and counted (Casy TT, Omni Life Science, Germany).
For saturation monolayer of LNCaP cells were seeded, 5×10^4 cells/well in 48-well plates two days before the assay. On the day of saturation, after aspirating the medium, 160 μL of medium (for ^99mTc-labeled radioligand with D-mannitol (1 mg/mL)) were pipetted per well, for non-specific binding samples including 100 μM 2-PMPA. After preincubation for 5 min, 40 μL activity ([^68Ga]Ga-PSMA-11 or ^99mTc-labeled radioligand solution) were added (total volume/well: 200 μL). Eight concentrations ranged between 0.3 and 40 nM.
(§2) After 1 hour of incubation at 37° C. both for competition and saturation samples, the supernatants were aspirated and the cells washed twice with cold PBS. The cell lawn was lysed with 500 μL NaOH/SDS (0.1 M/1%) by shaking for 3 to 5 minutes. After transferring the lysates into measuring tubes, the activity of the samples was measured in a gamma counter (2480 Automatic Gamma Counter Wizard 2, Perkin Elmer, USA).
(§3) The half maximal inhibitory concentrations (IC50) and the dissociations constants (Kd) were calculated by fitting the data using a nonlinear curve-fitting program (GraphPad Prism 9). With the Kd value of [^68Ga]Ga-PSMA-11 on LNCaP and the known concentration of [^68Ga]Ga-PSMA-11 in the competition assay the inhibition constants (Ki) was also determined with the curve-fitting program.

[2] = molecular target: T1, PSMA; experiment: Competitive binding affinity on LNCaP cells against [68Ga]Ga-PSMA-11 (competition); details: natRe complex of the listed compound, 1 nM [68Ga]Ga-PSMA-11, 1 h 37° C., mean ± SEM
Description: as §1
For competition monolayer of LNCaP cells were seeded, 1×10^5 cells/well in 24-well plates two days before the assay. On the day of competition, after aspirating the medium, 100 μL of PBS and, for competition 100 μL of different concentrations of the test compound in PBS (10^−12 to 10^−6 M) were pipetted into the wells, simultaneously to 400 μL of medium including 1 nM of [^68Ga]Ga-PSMA-11.
as §2, §3

[3] = system: subcutaneous LNCaP tumor xenografts; experiment: SPECT/CT and PET/CT imaging in LNCaP tumor bearing mice; assay type: in vivo; details: LNCaP xenograft model
Description: A prostate cancer xenograft model was generated via subcutaneous injection of human LNCaP cells into the right shoulder of 8-12 week-old male nude mice (Rj:NMRI-Foxn1^nu/nu, Janvier Labs, Le Genest-Saint-Isle, France). Imaging studies were performed when tumors reached a diameter of >6 mm. General anesthesia was induced and maintained with inhalation of 10% (v/v) desflurane in […] oxygen/air. During anesthesia, animals were continuously warmed at 37° C.
Small animal single-photon emission computed tomography (SPECT) was performed using the nanoSPECT/CT scanner (Mediso Medical Imaging Systems) equipped with an APT63 aperture consisting of four M3 multi-pinhole collimators. Each animal received 30 MBq of ^99mTc-labeled compounds delivered in 0.2 mL of Dulbecco's phosphate-buffered saline as a single intravenous injection through a tail vein catheter. Photon emission was recorded using frame times of 60 s (1 h scan: 40-70 min), 90 s (4 h scan, 3.5-4.5 h), and 320 s (20 h scan, 18.5-21.5 h), and binned simultaneously within the 20% energy window of the 140.5 keV photopeak. With each SPECT scan, a corresponding CT image was recorded and used for anatomical referencing and attenuation correction. SPECT images were reconstructed using the Tera-Tomo™ three-dimensional (3D) algorithm at normal range with a voxel size of 0.4 mm and applying corrections for scatter attenuation, and decay.
Small animal positron emission tomography (PET) was performed using the nanoPET/CT scanner (Mediso Medical Imaging Systems). Each animal received 10 MBq of the radiolabeled reference compound [^68Ga]Ga-PSMA-11 delivered in Dulbecco's phosphate-buffered saline as a single intravenous injection through a tail vein catheter. Emission of the 511 keV annihilation photons was recorded continuously at a coincidence mode of 1:5 for 60 min following radiotracer injection. With each PET scan, a corresponding CT image was recorded and used for anatomical referencing and attenuation correction. Three-dimensional list mode data were binned using the 400-600 keV energy window. PET images of the 40-60 min time frame were reconstructed using the Tera-Tomo™ three-dimensional (3D) algorithm with a voxel size of 0.4 mm and applying corrections for random events, scatter, attenuation, and decay.
Three-dimensional VOIs were created applying fixed threshold for delineation of tumor (30%), muscle (0%); and kidneys (39%). Standardized uptake values (SUV=[MBq detected activity/mL tissue]/[MBq injected activity/g body weight], mL/g) were determined and reported as max SUV (VOI-maximum). Time-activity curves were generated and further analyzed using Prism (GraphPad Software, San Diego CA, USA).

[4] = Product stability in DPBS at 25° C.; assay type: physicochemical; details: DPBS (+Ca2+, +Mg2+), mean ± SD, normalized to fraction immediately after preparation
Description: (§4) In brief, the freshly produced ^99mTc-labeled radioligand solution (10-20 MBq, 20-100 μL) was added to the respective medium (200-400 μL), vortexed quickly, and shook gently at the respective temperature mentioned below. At certain time points, samples were taken, diluted, and measured by radio-RP-HPLC. Hereby, investigation of plasma samples included protein precipitation with the 4-fold volume of an ice-cold mixture of methanol/water (4/1, v/v), intensive shaking (5 min) and centrifugation (14,000 rpm, 10 min), before inspection of the supernatant. In addition, the recovery of extracted activity was calculated after activity measurement of supernatant and residue by a gamma counter.

[5] = Determination of log D values (shake-flask, octanol/medium); assay type: physicochemical; details: for LogD (shake-flask, octanol/medium) Na-phosphate pH 7.4: 4.4 mM Na2HPO4, 2.2 mM NaH2PO4, pH 7.4
Description: Log D values were determined for different media by the shake-flask method (Andrés, A.; Rosés, M.; Ràfols, C.; Bosch, E.; Espinosa, S.; Segarra, V.; Huerta, J. M. Setup and validation of shake-flask procedures for the determination of partition coefficients (log D) from low drug amounts. Eur. J. Pharm. Sci. 2015, 76, 181-191.). In preparation, octanol was saturated with each of the used buffer solutions and vice versa. To 3 mL of octanol, together with 3 mL of buffer solution 200-300 μL of the ^99mTc-labeled radioligand (15-25 MBq, samples in triplicate) were added and shaken vigorously for 30 min. After centrifugation at 9,000 rpm for 15 min, samples were taken from both separated phases and measured by gamma-counter. Log D values were calculated as the ratio of radioactivity determined in octanol and aqueous phase.

[6] = Product stability in mouse plasma (in vitro); assay type: in vitro ADME; details: mean ± SD (n = 3-4), normalized to fraction immediately after preparation
Description: as §4

[7] = system: LNCaP cells; experiment: Determination of the internalization (surface binding and internalized activity); assay type: cell-based, human; details: 1 h
Description: as §1
For internalization LNCaP and PC3 cells were seeded, 1×10^5 cells/well in 24-well plates two days before the assay. On the day of internalization, after aspirating the medium, 100 μL of PBS and, for non-specific binding samples, 100 μL 2-PMPA (100 μM) were pipetted into the wells, followed by 400 μL medium including activity. The concentration of the ^99mTc-labeled radioligands was 25 nM. After 1 h of incubation at 37° C. and adjacent well plates at 4° C., the supernatant was removed and the cells washed with cold PBS. Surface-bound activity was stripped with 4° C. cold acid-wash buffer (0.2 M glycine, pH 2.8) for 5 min. The acid wash buffer was transferred from the plate wells to measuring tubes, as was the PBS buffer after washing once (binding on the surface). Cytosolic activity was determined after treatment with cell lysis buffer (0.1 M NaOH/1% SDS). Cell surface and cytosolic activity were measured separately in a gamma counter. Determination of protein content from cell lysate was performed using a spectrophotometer (NanoDrop, Thermo Fisher Scientific, USA) at an absorbance of 280 nm.

[8] = Product stability at room temperature (without addition of any media); assay type: physicochemical; details: no media, radio-RP-HPLC
Description: as §4

[9] = as early as 1 hour after injection

T1 sequence (Q04609 whole entry): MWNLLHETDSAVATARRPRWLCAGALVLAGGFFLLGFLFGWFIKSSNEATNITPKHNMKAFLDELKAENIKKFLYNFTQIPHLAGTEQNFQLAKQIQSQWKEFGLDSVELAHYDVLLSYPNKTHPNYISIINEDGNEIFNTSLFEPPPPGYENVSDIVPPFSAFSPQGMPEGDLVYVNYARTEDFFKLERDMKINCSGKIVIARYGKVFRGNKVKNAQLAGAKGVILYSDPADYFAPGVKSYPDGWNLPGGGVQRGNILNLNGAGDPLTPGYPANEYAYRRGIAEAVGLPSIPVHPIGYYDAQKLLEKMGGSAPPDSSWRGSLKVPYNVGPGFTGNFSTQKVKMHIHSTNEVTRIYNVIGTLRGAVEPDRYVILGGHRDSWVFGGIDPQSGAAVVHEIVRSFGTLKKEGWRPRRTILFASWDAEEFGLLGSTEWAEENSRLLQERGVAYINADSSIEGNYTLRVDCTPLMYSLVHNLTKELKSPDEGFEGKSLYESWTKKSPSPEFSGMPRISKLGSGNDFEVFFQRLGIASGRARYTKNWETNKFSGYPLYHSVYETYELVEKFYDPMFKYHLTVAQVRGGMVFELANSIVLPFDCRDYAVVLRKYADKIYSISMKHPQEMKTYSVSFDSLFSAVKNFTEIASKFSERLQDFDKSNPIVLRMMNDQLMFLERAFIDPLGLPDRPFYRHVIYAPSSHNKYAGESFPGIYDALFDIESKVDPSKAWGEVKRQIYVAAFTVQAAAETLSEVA

| SMILES | Kd [1] [nM] | Ki [2] [nM] | Fraction of radioligand in DPBS at 25° C., 1 h [4] [%] | Fraction of radioligand in DPBS at 25° C., 2 h [4] [%] | Fraction of radioligand in DPBS at 25° C., 4 h [4] [%] | Fraction of radioligand in DPBS at 25° C., 20 h [4] [%] | LogD (shake-flask, octanol/medium) Na-phosphate pH 7.4 [5] | LogD (shake-flask, octanol/medium) PBS 0.1M pH 7.4 [5] | LogD (shake-flask, octanol/medium) TRIS buffer 0.1M pH 7.4 [5] | Fraction of radioligand after 6 h in mouse plasma at 37° C. [6] [%] | further results |
| --- | --- | --- | --- | --- | --- | --- | --- | --- | --- | --- | --- |
| CC(C)(S)CNCCN(CCCCC(=O)N[C@@H](CCCCNC(=O)CCCCCCC(=O)NCCCC[C@H](NC(=O)N[C@@H](CCC(=O)O)C(=O)O)C(=O)O)C(=O)O)CC(C)(C)S [Compound 3] | 15.8 ± 9.1 | 7.3 ± 1.6 | – | – | – | – | – | – | – | – | – |
| CC(C)(S)CNCCN(CCCCC(=O)N[C@@H](CCC(=O)O)C(=O)N[C@@H](CCC(=O)O)C(=O)N[C@H](CCCCNC(=O)CCCCCCC(=O)NCCCC[C@H](NC(=O)N[C@@H](CCC(=O)O)C(=O)O)C(=O)O)C(=O)O)CC(C)(C)S [Compound 5] | 7.2 ± 1.7 | 9.3 ± 0.9 | – | – | – | – | – | – | – | – | pharmacokinetic properties and organ distribution compared to the prior art [3]: faster pharmacokinetic properties and a more favorable organ distribution; tumor-to-kidney ratio [3, 9]: High; tumor-to-muscle ratio [3, 9]: High |
| CC1(C)CN(CCCCC(=O)N[C@@H](Cc2ccccc2)C(=O)N[C@@H](Cc2ccccc2)C(=O)N[C@@H](CCCCNC(=O)CCCCCCC(=O)NCCCC[C@H](NC(=O)N[C@@H](CCC(=O)O)C(=O)O)C(=O)O)C(=O)O)CC[N]2CC(C)(C)[S][99Tc]2(=[O])[S]1 (stereo partly shown) [[^99mTc]TcO-1] | – | – | 101.5 ± 0.6 | 99.5 ± 0.8 | 100.2 ± 1.0 | 93.5 ± 1.8 | −2.18 ± 0.002 | −1.62 ± 0.01 | −2.18 ± 0.01 | 96.8 ± 0.3 | – |
| CC(C)(S)CNCCN(CCCCC(=O)N[C@@H](Cc1ccccc1)C(=O)N[C@@H](Cc1ccccc1)C(=O)N[C@@H](CCCCNC(=O)CCCCCCC(=O)NCCCC[C@H](NC(=O)N[C@@H](CCC(=O)O)C(=O)O)C(=O)O)C(=O)O)CC(C)(C)S [Compound 1] | 15.5 ± 3.2 | 4.8 ± 3.4 | – | – | – | – | – | – | – | – | – |
| CC1(C)CN(CCCCC(=O)N[C@@H](CCCCNC(=O)CCCCCCC(=O)NCCCC[C@H](NC(=O)N[C@@H](CCC(=O)O)C(=O)O)C(=O)O)C(=O)O)CC[N]2CC(C)(C)[S][99Tc]2(=[O])[S]1 (stereo partly shown) [[^99mTc]TcO-3] | – | – | 98.2 ± 1.9 | 97.3 ± 3.6 | 98.4 ± 1.0 | 89.1 ± 7.4 | −1.93 ± 0.01 | −2.07 ± 0.01 | −2.08 ± 0.02 | 98.5 ± 0.8 | % Internalization, 37° C. ([7]; 37° C.): 35.8%; Internalization, 4° C. (% AD/mg Protein) ([7]; cytosolic activity, 25 nM radioligand, 4° C., mean ± SEM): 0.7 ± 0.2 % AD/mg Protein; Internalization, 37° C. (% AD/mg Protein) ([7]; cytosolic activity, 25 nM radioligand, 37° C., mean ± SEM): 1.0 ± 0.3 % AD/mg Protein; Binding, 4° C. (% AD/mg Protein) ([7]; surface-bound activity, 25 nM radioligand, 4° C., mean ± SEM): 2.1 ± 1.2 % AD/mg Protein; Binding, 37° C. (% AD/mg Protein) ([7]; surface-bound activity, 25 nM radioligand, 37° C., mean ± SEM): 1.8 ± 0.3 % AD/mg Protein; Fraction of radioligand at indicated time point after preparation, 0 h ([8]; 0 h): 96%; Fraction of radioligand at indicated time point after preparation, 2 h ([8]; 2 h): 93%; Fraction of radioligand at indicated time point after preparation, 4 h ([8]; 4 h): 92%; Fraction of radioligand at indicated time point after preparation, 6 h ([8]; 6 h): 91% |

Source: patent publication US20250319213A1, “FUNCTIONALIZED BISAMINOTHIOL DERIVATIVES, COMPLEXES WITH THESE BISAMINOTHIOL DERIVATIVES AND USE OF SAID COMPLEXES AS DIAGNOSTICS AND THERAPEUTICS” (ABX ADVANCED BIOCHEMICAL COMPOUNDS – BIOMEDIZINISCHE …, priority 2022, published 2025)
